Earlier results on 6 molecules are cited in patent publication US20140120162A1, “Bioadhesive Drug Delivery Compositions” (PEROSPHERE INC., priority 2011, published 2014).

Read-outs that look alike come from different tables or passages of the source. A value given as a limit tells only on which side of the number the result lay.

Assay in series [1]: not given
This is another data set of the same source.

Assay in series [2]: not given
This is another data set of the same source.

Usually half-life stands for the time in which the quantity being followed falls by half. As to `C#C[C@]1(O)CC[C@H]2[C@@H]3CCC4=Cc5oncc5C[C@]4(C)[C@H]3CC[C@@]21C` [Danazol, 17a-Pregna-2,4-dien-20-yno[2,3-d]-isoxazol-17-ol], under “danazol administered orally”, the half-life was 4 to 5 h and the “time of peak concentrations” value is at most 2 h. Besides, the “increase in plasma concentration on doubling the dose” value (danazol, doubling the dose) is listed as 30-40%.

As to `CC(=O)O[C@H]1C(=O)[C@@]2(C)[C@H]([C@H](OC(=O)c3ccccc3)[C@]3(O)C[C@H](OC(=O)[C@H](O)[C@@H](NC(=O)c4ccccc4)c4ccccc4)C(C)=C1C3(C)C)[C@]1(OC(C)=O)CO[C@@H]1C[C@@H]2O` [Paclitaxel], the solubility in water entry in series [1] is reported as “insoluble”.

Regarding `NC(=O)N1c2ccccc2C=Cc2ccccc21` [Carbamazepine, 5H-dibenz[b,f]azepine-5-carboxamide], the solubility in acetone entry in series [1] (acetone) is recorded as “soluble”. In series [1], the “solubility in ethanol / alcohol” value is on record as “soluble” and the solubility in water entry is listed as “practically insoluble”.

As a reminder, the bioavailability is the share of a dose that reaches the circulation, judged against a reference dose that is usually intravenous. As for `NCC1(CC(=O)O)CCCCC1` [Gabapentin], the bioavailability (gabapentin, at best, 900 mg dose given three times a day) was at most 60%. The metabolism in humans entry (humans) is “not appreciably metabolized”.

Consider `C=CC[C@@H]1/C=C(\C)C[C@H](C)C[C@H](OC)[C@H]2O[C@@](O)(C(=O)C(=O)N3CCCC[C@H]3C(=O)O[C@H](/C(C)=C/[C@@H]3CC[C@@H](O)[C@H](OC)C3)[C@H](C)[C@@H](O)CC1=O)[C@H](C)C[C@@H]2OC` [Tacrolimus], for which the solubility in chloroform result in series [1] (chloroform) is reported as “very soluble”. Moreover, in series [1], the “solubility in ethanol / alcohol” value is “freely soluble”, the solubility in methanol result is “very soluble” and the solubility in water result is “practically insoluble”. The absolute bioavailability result (tacrolimus, 5 mg dose taken twice a day, oral) is recorded as “approximately 17%”.

Consider “1-[(4R,5S)-5-[(2-aminoethyl)amino]-N^2-(10,12-dimethyl-1-oxotetradecyl)-4-hydroxy-L-ornithine]-5-[(3IRI)-3-hydroxy-L-ornithine]pneumocandin B0 diacetate (salt) [Caspofungin acetate]”, for which, in series [1], the “solubility in ethanol / alcohol” value was “slightly soluble”, the solubility in methanol result is reported as “freely soluble” and the solubility in water result is given as “freely soluble”. Also, the “pH of a saturated aqueous solution” value in series [2] is recorded as “approximately 6.6”. Besides, the bioavailability (caspofungin) is recorded as 0%.
